Data from US20230302150A1, “ANTIBODY-TLR AGONIST CONJUGATES, METHODS AND USES THEREOF” (Ambrx, Inc., priority 2020, published 2023).
Where two headings read alike, the source gives them in different places.

Key:
[1] = system: SKBR3 HER2 high expressing tumor cell line / RAW-Blue cells; assay: RAW-Blue co-culture assay with SKBR3 tumor cells (HER2 ISACs); type: cell-based, human
Experimental: (§1) RAW-Blue™ cells (Invivogen, San Diego, CA) were co-cultured with human tumor cells with different levels of HER2 expression level at 1:1 E:T ratio with total number of 1 million cells per well in the 96 wells plate. Different concentration of small molecule TLR7 agonist and conjugated ISACs, (Immune Stimulating Antibody Conjugates), were added to the co-culture cell medium. After 24 h incubation, the levels of NF-kB-induced SEAP from the RAW-Blue™ cells were determined by Quanti-Blue detection reagents (Invivogen, San Diego, CA) with readings at OD 655 nm. The dose-response curves were generated using Prism Software.

[2] = system: SKOV3 HER2 high expressing tumor cell line / RAW-Blue cells; assay: RAW-Blue co-culture assay with SKOV3 tumor cells; type: cell-based, human; settings: conjugated to anti-HER2 antibody; data not shown
Experimental: as §1

hTLR7 = target: T1, hTLR7 (Homo sapiens, UniProt Q9NYK1); assay: HEK-Blue hTLR7 reporter assay (NF-kB-induced SEAP, Quanti-Blue); type: cell-based
T1 construct: expressed in transfected cells; host or cells: HEK-Blue hTLR7 reporter cell line
T1 sequence (Q9NYK1 27-1049): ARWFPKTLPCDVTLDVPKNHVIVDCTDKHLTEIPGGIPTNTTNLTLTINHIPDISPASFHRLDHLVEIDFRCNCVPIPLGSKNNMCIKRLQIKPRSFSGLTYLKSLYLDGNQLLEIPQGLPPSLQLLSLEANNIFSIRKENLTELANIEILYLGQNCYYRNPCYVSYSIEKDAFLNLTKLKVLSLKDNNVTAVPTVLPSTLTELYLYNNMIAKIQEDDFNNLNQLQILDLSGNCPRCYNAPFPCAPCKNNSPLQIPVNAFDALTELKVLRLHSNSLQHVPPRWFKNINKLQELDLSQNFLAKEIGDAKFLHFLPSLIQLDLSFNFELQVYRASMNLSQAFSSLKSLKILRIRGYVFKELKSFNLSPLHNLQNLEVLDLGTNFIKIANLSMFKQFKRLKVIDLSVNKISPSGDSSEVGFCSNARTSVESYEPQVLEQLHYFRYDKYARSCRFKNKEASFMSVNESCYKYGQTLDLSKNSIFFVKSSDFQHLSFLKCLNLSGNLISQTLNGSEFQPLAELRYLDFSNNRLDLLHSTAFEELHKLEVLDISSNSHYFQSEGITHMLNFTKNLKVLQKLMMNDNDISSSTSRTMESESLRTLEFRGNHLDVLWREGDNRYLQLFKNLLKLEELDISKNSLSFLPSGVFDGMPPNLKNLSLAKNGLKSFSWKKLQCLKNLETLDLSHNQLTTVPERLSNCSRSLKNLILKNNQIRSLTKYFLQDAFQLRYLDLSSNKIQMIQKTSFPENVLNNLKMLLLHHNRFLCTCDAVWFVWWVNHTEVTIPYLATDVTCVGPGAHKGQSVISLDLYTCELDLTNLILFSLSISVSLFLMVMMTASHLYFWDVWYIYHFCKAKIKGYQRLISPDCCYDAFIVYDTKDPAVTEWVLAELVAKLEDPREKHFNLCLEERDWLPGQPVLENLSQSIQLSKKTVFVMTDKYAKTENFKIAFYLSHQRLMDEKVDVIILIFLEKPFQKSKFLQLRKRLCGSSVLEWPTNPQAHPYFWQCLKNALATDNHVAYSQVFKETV
Experimental: HEK-Blue™ hTLR7 cells were incubated in HEK-Blue™ Detection medium and stimulated with increasing concentrations of TLR7 or TLR8 or TLR7/8 agonists. […] The EC50 was determined from dose-response curve using Prism Software.

TLR8 = target: T2, TLR8 (Homo sapiens, UniProt Q9NR97); assay: TLR8 reporter assay; type: cell-based
T2 sequence (Q9NR97 27-1041): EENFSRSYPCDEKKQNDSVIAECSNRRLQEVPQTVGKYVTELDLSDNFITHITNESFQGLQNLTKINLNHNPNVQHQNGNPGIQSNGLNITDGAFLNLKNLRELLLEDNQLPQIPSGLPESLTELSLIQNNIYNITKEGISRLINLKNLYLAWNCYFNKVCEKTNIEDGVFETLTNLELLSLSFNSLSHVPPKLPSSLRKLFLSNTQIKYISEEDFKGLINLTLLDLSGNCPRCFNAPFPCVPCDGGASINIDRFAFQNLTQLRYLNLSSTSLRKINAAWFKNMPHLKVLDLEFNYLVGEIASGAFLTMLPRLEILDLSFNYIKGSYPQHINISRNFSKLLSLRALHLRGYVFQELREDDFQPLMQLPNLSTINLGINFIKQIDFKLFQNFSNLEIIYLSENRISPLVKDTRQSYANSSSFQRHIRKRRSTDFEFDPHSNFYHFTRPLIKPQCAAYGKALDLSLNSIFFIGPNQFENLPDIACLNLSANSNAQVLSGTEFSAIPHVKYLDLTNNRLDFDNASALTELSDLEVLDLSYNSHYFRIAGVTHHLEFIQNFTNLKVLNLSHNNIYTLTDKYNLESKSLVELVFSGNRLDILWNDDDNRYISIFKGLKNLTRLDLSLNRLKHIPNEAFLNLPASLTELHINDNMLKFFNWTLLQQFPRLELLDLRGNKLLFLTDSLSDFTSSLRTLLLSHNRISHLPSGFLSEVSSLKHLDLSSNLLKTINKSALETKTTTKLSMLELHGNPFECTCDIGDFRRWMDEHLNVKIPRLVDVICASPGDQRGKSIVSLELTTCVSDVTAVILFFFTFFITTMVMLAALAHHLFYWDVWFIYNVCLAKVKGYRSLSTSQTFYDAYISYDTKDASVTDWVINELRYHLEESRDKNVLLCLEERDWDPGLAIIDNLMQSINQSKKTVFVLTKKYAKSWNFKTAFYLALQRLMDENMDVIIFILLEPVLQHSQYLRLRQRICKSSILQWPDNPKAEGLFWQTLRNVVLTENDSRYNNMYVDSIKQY

[3] = Table 12, TLR7 agonists attached to a linker, read-out: TLR Agonist Payload + Linkers EC50
[4] = Table 15, drug linker, read-out: TLR Agonist + Linker (DL) - EC50
[5] = Table 15, pAF containing final metabolite, read-out: TLR Agonist + Linker + nnAA (DL-pAF) - EC50
[6] = Table 19, TLR7, drug-linkers with PEG shielding, read-out: EC50
[7] = Table 11, TLR7 activities, read-out: EC50

## CCCCOc1nc(N)c2[nH]c(=O)n(Cc3ccc(CNC(=O)CCOCCON)cc3)c2n1 [AXC-863]
[1]
  tumor dependent ISAC activity: potent dose dependent activities only in the presence of HER2 high expressing tumor cell lines
[2]
  tumor dependent ISAC activity: potent dose dependent activities only in the presence of HER2 high expressing tumor cell lines
hTLR7; [3]
  EC50: 864 nM
hTLR7; [4]
  EC50: 864 nM
hTLR7; [5]
  EC50: 287 nM
hTLR7; [6]
  EC50: 320 nM

## CCCCOc1nc(N)c2[nH]c(=O)n(Cc3ccc(CN4CCC(CCNC(=O)CON)CC4)cc3)c2n1 [AXC-879, N-(2-(1-(4-((6-amino-2-butoxy-8-oxo-7H-purin-9(8H)-yl)methyl)benzyl)piperidin-4-yl)ethyl)-2-(aminooxy)acetamide]
[1]
  tumor dependent ISAC activity: highest HER2 dependent TLR7 activities
hTLR7
  TLR7 activity (comparison in words): highest potency among different TLR-agonist (payload) linkers
hTLR7; [3]
  EC50: 151 nM
hTLR7; [4]
  EC50: 151 nM
hTLR7; [5]
  EC50: 90 nM

## CCCCOc1nc(N)c2[nH]c(=O)n(Cc3ccc(CN4CCC(CCNC(=O)c5cc(F)c(N)c(F)c5)CC4)cc3)c2n1 [AXC-887, 4-amino-N-(2-(1-(4-((6-amino-2-butoxy-8-oxo-7H-purin-9(8H)-yl)methyl)benzyl)piperidin-4-yl)ethyl)-3,5-difluorobenzamide]
TLR8
  EC50: 3730 nM
hTLR7; [7]
  EC50: 4.6 nM
hTLR7; text to Table 11, TLR7, read-out: EC50
  EC50: < 10 nM

## CCCCOc1nc(N)c2[nH]c(=O)n(Cc3ccc(CN4CCC(C5CCN(C(=O)CON)CC5)CC4)cc3)c2n1 [AXC-901, 6-amino-9-(4-((1′-(2-(aminooxy)acetyl)-4,4′-bipiperidin-1-yl)methyl)benzyl)-2-butoxy-7H-purin-8(9H)-one]
[1]
  tumor dependent ISAC activity: highest HER2 dependent TLR7 activities
hTLR7
  TLR7 activity (comparison in words): highest potency among different payload linkers
hTLR7; Table 13, TLR7, read-out: EC50
  EC50: 48 nM

## CCCCOc1nc(N)c2[nH]c(=O)n(Cc3ccc(CN4CCC(CCON)CC4)cc3)c2n1 [AXC-979, 6-amino-9-(4-((4-(2-(aminooxy)ethyl)piperidin-1-yl)methyl)benzyl)-2-butoxy-7H-purin-8(9H)-one]
hTLR7; [6]
  EC50: 21.7 nM

## CCCCOc1nc(NC(C)=O)c2[nH]c(=O)n(Cc3ccc(CN4CCC(C5CCNCC5)CC4)cc3)c2n1 [AXC-980, N-(9-(4-(4,4′-bipiperidin-1-ylmethyl)benzyl)-2-butoxy-8-oxo-8,9-dihydro-7H-purin-6-yl)acetamide]
hTLR7; [6]
  EC50: 29.6 nM

## CCCCOc1nc(NC(C)=O)c2[nH]c(=O)n(Cc3ccc(CN4CCC(C5CCN(C(=O)CON)CC5)CC4)cc3)c2n1 [AXC-981, N-(9-(4-((1′-(2-(aminooxy)acetyl)-4,4′-bipiperidin-1-yl)methyl)benzyl)-2-butoxy-8-oxo-8,9-dihydro-7H-purin-6-yl)acetamide]
hTLR7; [6]
  EC50: 10.1 nM

## CCCCOc1nc(NC(=O)CCOCCOCCOC)c2[nH]c(=O)n(Cc3ccc(CN4CCC(CCN)CC4)cc3)c2n1 [AXC-982, N-(9-(4-((4-(2-aminoethyl)piperidin-1-yl)methyl)benzyl)-2-butoxy-8-oxo-8,9-dihydro-7H-purin-6-yl)-3-(2-(2-methoxyethoxy)ethoxy)propanamide]
hTLR7; [6]
  EC50: 19.1 nM

## CCCCOc1nc(NC(=O)CCOCCOCCOC)c2[nH]c(=O)n(Cc3ccc(CN4CCC(CCNC(=O)CON)CC4)cc3)c2n1 [AXC-983, N-(9-(4-((4-(2-(2-(aminooxy)acetamido)ethyl)piperidin-1-yl)methyl)benzyl)-2-butoxy-8-oxo-8,9-dihydro-7H-purin-6-yl)-3-(2-(2-methoxyethoxy)ethoxy)propanamide]
hTLR7; [6]
  EC50: 53.3 nM

## CCCCNc1nc(N)c2[nH]c(=O)n(Cc3ccc(OCCN(C)C)nc3)c2n1 [DSR-6434, reference compound]
hTLR7; Table 10, read-out: TLR7 EC50
  EC50: 9.2 nM
hTLR7; [7]
  EC50: 15.8 nM
hTLR7; [3]
  EC50: 14.8 nM
hTLR7; Table 13, TLR7, read-out: EC50
  EC50: 9 nM
hTLR7; Table 14, read-out: TLR7 EC50
  EC50: 10.5 nM
hTLR7; [4]
  EC50: 15 nM
hTLR7; [5]
  EC50: 11 nM
hTLR7; [6]
  EC50: 14 nM

## CCCN(CCC)C(=O)C1=Cc2ccc(-c3ccc(C(=O)N4CCCC4)cc3)cc2N=C(N)C1 [Motolimod, reference compound]
TLR8
  EC50: 1430 nM
